Consider one molecule from PMC3662962 (Biochemical and biophysical research communications, 2010).

This assay concerns the target RsbU phosphatase domain (Mycobacterium tuberculosis, UniProt P9WLZ7). Put plainly: biochemical.

Sequence of RsbU phosphatase domain (P9WLZ7 190-397): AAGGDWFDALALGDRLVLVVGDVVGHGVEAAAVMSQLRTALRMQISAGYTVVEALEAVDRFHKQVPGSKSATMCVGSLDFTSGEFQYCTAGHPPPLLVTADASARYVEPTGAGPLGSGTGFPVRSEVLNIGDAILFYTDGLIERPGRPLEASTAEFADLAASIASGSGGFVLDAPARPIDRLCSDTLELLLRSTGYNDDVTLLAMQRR

Broadly, the Ki is the equilibrium dissociation constant of an inhibitor or competing ligand from its target. A high value points to lower affinity. In the case of `O=P(O)(O)O` [inorganic phosphate], the Ki is 320 nM.
